The text below walks through data of US12187758B2 (ROME Therapeutics, Inc., priority 2022, dated 2025).

The subject of one experiment is THP1-Dual KO-TREX1 cells. Put plainly: THP1 TREX1 KO inhibition assay (type 1 interferon response). Format: cell-based. The settings on record: Homo sapiens, 144 h, type 1 interferon (QUANTI-LUC), 1 μM 5-aza-2′-deoxycytidine, six days. The method, boiled down: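 THP1-Dual KO-TREX1 cells were treated with a dose titration of compound, alone or with 1 μM 5-aza-2′-deoxycytidine, for six days at 37 °C. Type 1 interferon was read as secreted luciferase (QUANTI-LUC) in the supernatant, and viability by CellTiter-Glo luminescence.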

For experiment [1], the system named is SDH-A (succinate dehydrogenase-A). In words: Mitochondria toxicity assay with PC3 cells, in-cell ELISA SDH-A. Format: cell-based. The settings on record: 5 days treatment. In short, it runs like this: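 This in-cell ELISA was run on fixed, permeabilized PC3 cells after 5-day exposure to titrated compound, with cytotoxicity measured on a duplicate plate. Results are reported as categories A (<1.0 μM) to E (>100.0 μM).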
(An ELISA detects its analyte on a solid surface through an enzyme-linked reagent.)

SMILES strings stand for the structures. Where only a bound is given, the exact number is not on record here.

As for `Nc1ccn([C@H]2C[C@H](O)[C@](CO)(CCl)O2)c(=O)n1` [Compound 2, 4-amino-1-((2R,4S,5R)-5-(chloromethyl)-4-hydroxy-5-(hydroxymethyl)tetrahydrofuran-2-yl)pyrimidin-2(1H)-one], the results for the IC50 (with THP1-Dual KO-TREX1 cells; in experiment [1]) were 50 to 100 nM and greater than 100000 nM, respectively.

Consider `C[C@@H]1[C@H](n2ccc(N)nc2=O)O[C@@](CO)(CCl)[C@H]1O` [Compound 12, 4-amino-1-((2R,3S,4S,5R)-5-(chloromethyl)-4-hydroxy-5-(hydroxymethyl)-3-methyltetrahydrofuran-2-yl)pyrimidin-2(1H)-one], for which the IC50 (usually the midpoint of a concentration-inhibition curve) with THP1-Dual KO-TREX1 cells was greater than 1000 nM; in experiment [1], greater than 100000 nM.

Take `CO[C@@H]1[C@H](n2ccc(N)nc2=O)O[C@@](CO)(CCl)[C@H]1O` [Compound 13, 4-amino-1-((2R,3S,4S,5R)-5-(chloromethyl)-4-hydroxy-5-(hydroxymethyl)-3-methoxytetrahydrofuran-2-yl)pyrimidin-2(1H)-one]: the IC50 in the experiment with THP1-Dual KO-TREX1 cells was greater than 1000 nM; in experiment [1], greater than 100000 nM.

For `Nc1nc(=O)n([C@H]2C[C@H](O)[C@](CO)(CCl)O2)cc1F` [Compound 14, 4-amino-1-((2R,4S,5R)-5-(chloromethyl)-4-hydroxy-5-(hydroxymethyl)tetrahydrofuran-2-yl)-5-fluoropyrimidin-2(1H)-one], the values for the IC50 (in the experiment on THP1-Dual KO-TREX1 cells; in experiment [1]) were 100 to 250 nM and greater than 100000 nM, respectively.

`Nc1ncnc2c1ncn2[C@H]1C[C@H](O)[C@](CO)(CCl)O1` [Compound 15, (2R,3S,5R)-5-(6-amino-9H-purin-9-yl)-2-(chloromethyl)-2-(hydroxymethyl)tetrahydrofuran-3-ol]: the IC50 is greater than 1000 nM in the experiment on THP1-Dual KO-TREX1 cells and greater than 100000 nM in experiment [1].

Take `Nc1ccn([C@H]2C[C@H](O)[C@](CO)(C3CC3)O2)c(=O)n1` [Compound 16, 4-amino-1-((2R,4S,5R)-5-cyclopropyl-4-hydroxy-5-(hydroxymethyl)tetrahydrofuran-2-yl)pyrimidin-2(1H)-one]: the IC50 in the experiment on THP1-Dual KO-TREX1 cells is greater than 1000 nM; in experiment [1], greater than 100000 nM.

Turning to `C[C@@H]1[C@H](n2ccc(N)nc2=O)O[C@](C)(CO)[C@H]1O` [Compound 19, 4-amino-1-((2R,3S,4S,5R)-4-hydroxy-5-(hydroxymethyl)-3,5-dimethyltetrahydrofuran-2-yl)pyrimidin-2(1H)-one], the IC50 in the experiment with THP1-Dual KO-TREX1 cells is greater than 1000 nM; in experiment [1], 10000 to 50000 nM.

Turning to `C#C[C@]1(CO)O[C@@H](n2cnc3c(N)nc(Cl)nc32)C[C@@H]1O` [Compound 25], the IC50 is greater than 1000 nM in the experiment with THP1-Dual KO-TREX1 cells and greater than 100000 nM in experiment [1].

`Nc1ccn([C@@H]2O[C@@](CO)(CCl)[C@@H](O)[C@@H]2F)c(=O)n1` [Compound 40, 4-amino-1-((2R,3S,4R,5R)-5-(chloromethyl)-3-fluoro-4-hydroxy-5-(hydroxymethyl)tetrahydrofuran-2-yl)pyrimidin-2(1H)-one]: the IC50 is greater than 1000 nM with THP1-Dual KO-TREX1 cells and greater than 100000 nM in experiment [1].

On to `CC[C@]1(CO)O[C@@H](n2ccc(N)nc2=O)C[C@@H]1O` [Compound 44, 4-amino-1-((2R,4S,5R)-5-ethyl-4-hydroxy-5-(hydroxymethyl)tetrahydrofuran-2-yl)pyrimidin-2(1H)-one], for which the IC50 was greater than 1000 nM in the experiment on THP1-Dual KO-TREX1 cells and greater than 100000 nM in experiment [1].

With `CC[C@]1(CO)O[C@@H](n2ccc(N)nc2=O)[C@@H](F)[C@@H]1O` [Compound 51, 4-amino-1-((2R,3S,4R,5R)-5-ethyl-3-fluoro-4-hydroxy-5-(hydroxymethyl)tetrahydrofuran-2-yl)pyrimidin-2(1H)-one], the IC50 in the experiment with THP1-Dual KO-TREX1 cells is greater than 1000 nM; in experiment [1] it was greater than 100000 nM.

Turning to `[N-]=[N+]=N[C@]1(CO)O[C@@H](n2cc(F)c(N)nc2=O)C[C@@H]1O` [Compound 61, 4-amino-1-((2R,4S,5R)-5-azido-4-hydroxy-5-(hydroxymethyl)tetrahydrofuran-2-yl)-5-fluoropyrimidin-2(1H)-one], the values for the IC50 (with THP1-Dual KO-TREX1 cells; in experiment [1]) were greater than 1000 nM and greater than 100000 nM, respectively.

As for `Nc1nc(=O)n([C@@H]2O[C@@](CO)(CCl)[C@@H](O)[C@@H]2F)cc1F` [Compound 67, 4-amino-1-[(2R,3S,4R,5R)-5-(chloromethyl)-3-fluoro-4-hydroxy-5-(hydroxymethyl)oxolan-2-yl]-5-fluoropyrimidin-2-one], the IC50 in the experiment with THP1-Dual KO-TREX1 cells was 250 to 1000 nM; in experiment [1], greater than 100000 nM.

Consider `Nc1nc(=O)n([C@@H]2O[C@@](CO)(CF)[C@@H](O)[C@@H]2O)cc1F` [Compound 72, 4-amino-5-fluoro-1-((2R,3S,4S,5R)-5-(fluoromethyl)-3,4-dihydroxy-5-(hydroxymethyl)tetrahydrofuran-2-yl)pyrimidin-2(1H)-one], for which the IC50 is greater than 1000 nM in the experiment on THP1-Dual KO-TREX1 cells and greater than 100000 nM in experiment [1].

Take `Nc1nc(=O)n([C@@H]2O[C@@](CO)(CF)[C@@H](O)[C@@H]2F)cc1F` [Compound 85, 4-amino-5-fluoro-1-[(2R,3S,4R,5R)-3-fluoro-5-(fluoromethyl)-4-hydroxy-5-(hydroxymethyl)oxolan-2-yl] pyrimidin-2-one]: the IC50 with THP1-Dual KO-TREX1 cells is 250 to 1000 nM; in experiment [1], greater than 100000 nM.

With `Nc1nc(=O)n([C@H]2C[C@H](O)[C@](CO)(CBr)O2)cc1F` [Compound 88, 4-amino-1-((2R,4S,5R)-5-(bromomethyl)-4-hydroxy-5-(hydroxymethyl)tetrahydrofuran-2-yl)-5-fluoropyrimidin-2(1H)-one], the IC50 in the experiment with THP1-Dual KO-TREX1 cells is 250 to 1000 nM; in experiment [1] it was greater than 100000 nM.
